Patent publication US11426421B2, “Composition for preventing or improving inflammation including extract of seed of new soybean cultivar SCEL-1” (KOREA INSTITUTE OF SCIENCE AND TECHNOLOGY, priority 2018, dated 2022)

Tested on: oxazolone-induced atopic dermatitis in mice
Assay: Oxazolone-induced atopic dermatitis in mice, samples applied to the ear, ear thickness (H&E histology)
Assay type: in vivo, mouse
Conditions: positive control group (Dexa), concentration not given; FIG. 2
Protocol: In a mouse, oxazolone was administered thereto to induce an oxazolone-induced atopic dermatitis. Then, the effect of the extract of the selected cultivar on atopic dermatitis was examined.
In detail, mice (male, 20 g, 8-week-old, Central Lab. Animal Inc.) was divided into a group of 6, and each group was named as a control group, a induction group (Vehicle), a positive control group (Dexa), a soybean SCEL-1 0.1% (w/v)-treated group, a soybean SCEL-1 0.3% (w/v)-treated group, a SCEL-1 1.0% (w/v)-treated group, and a general black soybean (available from Nonghyup of Gangneungkyo-1-dong) 1.0% (w/v)-treated group. Each sample was prepared in the same manner as in Section (1).
To induce atopic dermatitis in mice, 40 μl of 1% oxazolone per ear was applied once a day. After one week and starting from the eighth day, 40 μl of 1% oxazolone per ear was applied on alternate days for three weeks. In addition, starting from the eighth day, in addition to the oxazolone application, samples were also applied twice a day. Immediately after the experiment, a tissue of the ear was immobilized in 10% paraformaldehyde for 24 hours or more, and then, immersed in paraffin to form a block. The block was then fixed, and cut to a thickness of 10 μm by using a microtome that enables cutting to a constant thickness. […]

C[C@@H]1C[C@H]2[C@@H]3CCC4=CC(=O)C=C[C@]4(C)[C@@]3(F)[C@@H](O)C[C@]2(C)[C@@]1(O)C(=O)CO [dexamethanosone]
ear thickness of the mouse having oxazolone-induced atopic dermatitis: reduced to a thickness near the normal level
